Experimental data published in patent US8586611B2 (priority 2005, dated 2013).

Columns and labels:
Assay type in all cases: in vivo
[1] = test system: Pseudoperonospora cubensis; experiment: Test A: cucumber downy mildew, spray the day before inoculation (disease rating, 100 = 100% disease control)
Source text: The test compounds were first dissolved in acetone in an amount equal to 3% of the final volume and then suspended at the desired concentration (in ppm) in acetone and purified water (50/50 mix by volume) containing 250 ppm of the surfactant Trem® 014 (polyhydric alcohol esters). The resulting test suspensions were then used in tests A-E. Spraying a 200 ppm test suspension to the point of run-off on the test plants was the equivalent of a rate of 500 g/ha.
The test suspension was sprayed to the point of run-off on cucumber seedlings. The following day the seedlings were inoculated with a spore suspension of Pseudoperonospora cubensis (the causal agent of cucumber downy mildew) and incubated in a saturated atmosphere at 20° C. for 24 h, and then moved to a growth chamber at 20° C. for 6 days, after which disease ratings were made.
Results for Tests A-F are given in Table A. In the table, a rating of 100 indicates 100% disease control and a rating of 0 indicates no disease control (relative to the controls). A dash (-) indicates no test results.

Plasmopara viticola = experiment: Test B: grape downy mildew, spray 24 h after inoculation (disease rating, 100 = 100% disease control)
Method in brief: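 Grape seedlings were inoculated with Plasmopara viticola and held 24 h saturated at 20 °C, then sprayed to run-off with compound suspension (acetone/water with 250 ppm Trem 014; 200 ppm ≈ 500 g/ha). After 5 days at 20 °C and 24 h saturation, disease was rated from 0 to 100% control versus untreated.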

Phytophthora infestans [2] = experiment: whole plant or invertebrate; conditions: tomato late blight
[3] = test system: Erysiphe graminis f. sp. tritici; experiment: Test E: wheat powdery mildew, spray the day before inoculation (disease rating, 100 = 100% disease control)
Method in brief: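 Wheat seedlings sprayed to run-off with compound suspended in acetone/water 50/50 with 250 ppm Trem 014 (200 ppm equivalent to 500 g/ha); inoculated next day with Erysiphe graminis f. sp. tritici spore dust. Kept 7 days at 20° C, then rated 0–100% disease control versus controls.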

[4] = test system: Pseudoperonospora cubensis; experiment: Test F: cucumber downy mildew, DMSO/acetone/water test suspension, spray the day before inoculation (disease rating, 100 = 100% disease control)
Method in brief: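 Compounds in DMSO (4% of final volume) suspended in 30/70 acetone/water and sprayed on cucumber seedlings; 250 ppm corresponds to 250 g/ha. Spore inoculation the next day, 24 h saturated humidity at 20° C., then 6 days at 20° C. Rating 0–100 is disease control relative to controls.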

Phytophthora infestans [5] = experiment: whole plant or invertebrate; conditions: tomato late blight; spray 17 h after inoculation; tested at 40 ppm
[6] = spray the day before inoculation, compounds without asterisk (not 40 or 10 ppm)
[7] = spray 24 h after inoculation, compounds without asterisk (not 40 or 10 ppm)
[8] = DMSO/acetone/water suspension, spray the day before inoculation, compounds without asterisk
[9] = sprayed the day before inoculation, unmarked compounds (no asterisk, not 40 or 10 ppm)
[10] = sprayed 24 h after inoculation, unmarked compounds (no asterisk, not 40 or 10 ppm)
[11] = sprayed the day before inoculation, 7 days at 20° C., unmarked compounds (no asterisk, not 40 or 10 ppm)
[12] = DMSO/acetone/water test suspension, sprayed the day before inoculation, unmarked compounds (no asterisk)
[13] = spray the day before inoculation, tested at 40 ppm

Molecule | Test A disease rating (100 = 100% disease control, 0 = no disease control) [1, 6] [%] | Test B disease rating (100 = 100% disease control, 0 = no disease control) (Plasmopara viticola; [7]) [%] | Test C disease rating (100 = 100% disease control, 0 = no disease control) (Phytophthora infestans [2]; [6]) [%] | Test E disease rating (100 = 100% disease control, 0 = no disease control) [3, 6] [%] | Test F disease rating (100 = 100% disease control, 0 = no disease control) [4, 8] [%] | Test A disease rating (100 = 100% disease control, 0 = no disease control) [1, 9] | Test B disease rating (100 = 100% disease control, 0 = no disease control) (Plasmopara viticola; [10]) | Test C disease rating (100 = 100% disease control, 0 = no disease control) (Phytophthora infestans [2]; [9]) | Test E disease rating (100 = 100% disease control, 0 = no disease control) [3, 11] | Test F disease rating (100 = 100% disease control, 0 = no disease control) [4, 12] | Test B disease rating (100 = 100% disease control, 0 = no disease control) (Plasmopara viticola; spray 24 h after inoculation, tested at 40 ppm) [%] | Test C disease rating (100 = 100% disease control, 0 = no disease control) (Phytophthora infestans [2]; [13]) [%] | Test D disease rating (100 = 100% disease control, 0 = no disease control) (Phytophthora infestans [5]) [%] | Test E disease rating (100 = 100% disease control, 0 = no disease control) [3, 13] [%]
2-[1-[(2,5-dimethylphenyl)acetyl]-4-piperidinyl]-N-methyl-N-[(1R)-1-phenylpropyl]-4-oxazolecarboxamide [Compound 154] | 0 | 20 | 0 | 0 | 95 | – | – | – | – | – | – | – | – | –
2-[1-[(3,5-diethyl-1H-pyrazol-1-yl)acetyl]-4-piperidinyl]-N-methyl-N-[(1R)-1,2,3,4-tetrahydro-1-naphthalenyl]-4-thiazolecarboxamide [Compound 209] | 100 | 76 | 98 | 0 | 99 | – | – | – | – | – | – | – | – | –
2-[1-[[5-ethyl-3-(trifluoromethyl)-1H-pyrazol-1-yl]acetyl]-4-piperidinyl]-N-methyl-N-[(1R)-1,2,3,4-tetrahydro-1-naphthalenyl]-4-thiazolecarboxamide [Compound 208] | 100 | 95 | 100 | 0 | 99 | – | – | – | – | – | – | – | – | –
Cc1ccccc1CC(=O)N1CCC(c2nc(C(=O)N(C)[C@H](C)c3ccccc3)cs2)CC1 [Compound 11] | 0 | 31 | 91 | 0 | 97 | – | – | – | – | – | – | – | – | –
C[C@H](c1ccccc1)N(C)C(=O)c1csc(C2CCN(C(=O)Cc3ccc(F)c(Cl)c3)CC2)n1 [compound 35] | 88 | 66 | 93 | 0 | 97 | – | – | – | – | – | – | – | – | –
Cc1cccc(CC(=O)N2CCC(c3nc(C(=O)N(C)[C@H](C)c4ccccc4)cs3)CC2)c1 [compound 36] | 100 | 99 | 100 | 91 | 95 | – | – | – | – | – | – | – | – | –
C[C@H](c1ccccc1)N(C)C(=O)c1csc(C2CCN(C(=O)Cc3ccc(F)c(F)c3)CC2)n1 [compound 38] | 0 | 45 | 0 | 55 | 43 | – | – | – | – | – | – | – | – | –
C[C@H](c1ccccc1)N(C)C(=O)c1csc(C2CCN(C(=O)Cc3cc(C(F)(F)F)ccc3Cl)CC2)n1 [compound 39] | 100 | 100 | 100 | 85 | 100 | – | – | – | – | – | – | – | – | –
COc1ccccc1CC(=O)N1CCC(c2nc(C(=O)N(C)[C@H](C)c3ccccc3)cs2)CC1 [compound 41] | 100 | 94 | 100 | 0 | 82 | – | – | – | – | – | – | – | – | –
C[C@H](c1ccccc1)N(C)C(=O)c1csc(C2CCN(C(=O)Cc3cc(F)ccc3F)CC2)n1 [compound 44] | 97 | 57 | 98 | 21 | 0 | – | – | – | – | – | – | – | – | –
Cc1ccc(C)c(CC(=O)N2CCC(c3nc(C(=O)N(C)[C@H](C)c4ccccc4)cs3)CC2)c1 [compound 47] | 100 | 100 | 100 | 96 | 100 | – | – | – | – | – | – | – | – | –
C[C@H](c1ccccc1)N(C)C(=O)c1csc(C2CCN(C(=O)Nc3cccc(C(F)(F)F)c3)CC2)n1 [compound 156] | 100 | – | 62 | 21 | 100 | – | – | – | – | – | – | – | – | –
CN(CCc1ccccc1)C(=O)c1csc(C2CCN(C(=O)Cc3ccccc3Cl)CC2)n1 [compound 162] | 0 | 14 | 15 | 42 | 43 | – | – | – | – | – | – | – | – | –
CC(C)(NC(=O)c1csc(C2CCN(C(=O)Cc3ccccc3Cl)CC2)n1)c1ccccc1 [compound 263] | – | – | – | – | – | 92 | 0 | 15 | 0 | 0 | – | – | – | –
O=C(NCCc1ccccc1)c1csc(C2CCN(C(=O)Cc3ccccc3Cl)CC2)n1 [compound 264] | – | – | – | – | – | 96 | 20 | 0 | 68 | 93 | – | – | – | –
O=C(NC1CCCc2ccccc21)c1csc(C2CCN(C(=O)Cc3ccccc3Cl)CC2)n1 (stereo not drawn) [compound 266] | – | – | – | – | – | 100 | 6 | 57 | 42 | 86 | – | – | – | –
N-methyl-2-[1-[[5-methyl-3-(trifluoromethyl)-1H-pyrazol-1-yl]acetyl]-4-piperidinyl]-N-[(1R,2S)-1,2,3,4-tetrahydro-2-methyl-1-naphthalenyl]-4-thiazolecarboxamide [Compound 234] | 100 | 100 | 100 | 21 | – | – | – | – | – | – | 100 | 100 | 99 | 0
